Patent US5407918A, “16-membered macrolide derivatives and process for producing the same” (Meiji Seika Kaisha, Ltd., priority 1992, dated 1995)
Converted amounts (≈) assume the structure as drawn. Where two headings read alike, the source gives them in different places.

Assays:
[1] = metabolism in plasma; type: in vitro ADME, rat; details: no free hydroxyl group in the neutral sugar moiety formed
Procedure: Each test compound and 50 μl of a methanol solution (10,000 γ) were added to 950 μl of thawed rat plasma and the resulting mixture was incubated at 37° C. for 24 hours. After completion of the incubation, a 20 μl portion of the mixture was added to 980 μl of 0.05M phosphate buffer (pH 7.6). A 20 μl portion of the sample solution was used to measure antimicrobial activity against M. luteus. Separately, the calibration curve was prepared by using a methanol solution containing each test compound. The starting activity of each compound in the plasma was referred to as 100%.

[2] = system: Gram-positive bacteria and Mycoplasma; assay: antimicrobial activity in vitro (summary in words); type: cell-based; details: from Table 1
Procedure: (§1) Antimicrobial activities of the compounds of the present invention were determined by measuring minimum inhibitory concentration (MIC). Minimum inhibitory concentration was determined by the agar plate dilution method in the following manner.
(§2) Test strains were subjected to seed culture using Sensitivity test broth (STB, Nissui Pharmaceutical) except that the strains belonging to the genus Streptococcus, Branhamella and Haemophilus were cultured on blood agar plate. A 5 μl portion of cell suspension of the test strains having about 10^6 CFU/ml was inoculated into Sensitivity disk agar (SDA, Nissui Pharmaceutical) supplemented with 5% horse blood and incubated at 37° C. for 20 hours. Then, MIC was measured. For comparison, MDM and leucomycin A7 (LM-A7) was also tested.

[3] = system: S. Pyogenes Cook; assay: MIC, agar plate dilution method; type: cell-based; details: Streptococcus pyogenes, 37° C., 20 hours, read-out: Antimicrobial activity (MIC)
Procedure: as §1, §2

[4] = system: M. pneumoniae Mac; assay: MIC, agar plate dilution method; type: cell-based; details: Mycoplasmoides pneumoniae, 20 h, read-out: Antimicrobial activity (MIC)
Procedure: as §1, §2

[5] = system: E. faecalis W-73; assay: MIC, agar plate dilution method; type: cell-based; details: Enterococcus faecalis, read-out: Antimicrobial activity (MIC)
Procedure: as §1, §2

[6] = system: B. catarrhalis W-0500; assay: MIC, agar plate dilution method; type: cell-based; details: Moraxella catarrhalis, W0500, 37° C., 20 hours, read-out: Antimicrobial activity (MIC)
Procedure: as §1, §2

[7] = system: S. aureus MS15009/pMS99; assay: MIC, agar plate dilution method; type: cell-based; details: Staphylococcus aureus, MS15009/PMS99, 20 h, read-out: Antimicrobial activity (MIC)
Procedure: as §1, §2

[8] = system: S. pneumoniae IP692; assay: MIC, agar plate dilution method; type: cell-based; details: Streptococcus pneumoniae; S. pneumoniae IP692; 37° C., 20 hours; read-out: Antimicrobial activity (MIC)
Procedure: as §1, §2

[9] = system: S. aureus M126; assay: MIC, agar plate dilution method; type: cell-based; details: Staphylococcus aureus; S. aureus M126; 37° C., 20 hours; read-out: Antimicrobial activity (MIC)
Procedure: as §1, §2

[10] = system: E. coli NIHJ JC-2; assay: MIC, agar plate dilution method; type: cell-based; details: Escherichia coli, read-out: Antimicrobial activity (MIC)
Procedure: as §1, §2

[11] = system: S. Pneumoniae Type 1; assay: MIC, agar plate dilution method; type: cell-based; details: Streptococcus pneumoniae, read-out: Antimicrobial activity (MIC)
Procedure: as §1, §2

[12] = system: S. aureus MS15009/pMS98; assay: MIC, agar plate dilution method; type: cell-based; details: Staphylococcus aureus, MS15009/PMS98, 20 h, read-out: Antimicrobial activity (MIC)
Procedure: as §1, §2

[13] = system: K. pneumoniae PC1602; assay: MIC, agar plate dilution method; type: cell-based; details: Klebsiella pneumoniae, 37° C., 20 hours, read-out: Antimicrobial activity (MIC)
Procedure: as §1, §2

[14] = system: S. aureus MS15026; assay: MIC, agar plate dilution method; type: cell-based; details: Staphylococcus aureus, 37° C., 20 hours, read-out: Antimicrobial activity (MIC)
Procedure: as §1, §2

[15] = system: M. luteus ATCC9341; assay: MIC, agar plate dilution method; type: cell-based; details: Micrococcus luteus; M. luteus ATCC9341; 37° C., 20 hours; read-out: Antimicrobial activity (MIC)
Procedure: as §1, §2

[16] = system: S. aureus MS15027; assay: MIC, agar plate dilution method; type: cell-based; details: Staphylococcus aureus, 37° C., 20 hours, read-out: Antimicrobial activity (MIC)
Procedure: as §1, §2

[17] = system: M. pneumoniae Numata; assay: MIC, agar plate dilution method; type: cell-based; details: Mycoplasmoides pneumoniae, 20 h, read-out: Antimicrobial activity (MIC)
Procedure: as §1, §2

[18] = system: M. pneumoniae FH-P24; assay: MIC, agar plate dilution method; type: cell-based; details: Mycoplasmoides pneumoniae, FHP24, 20 h, read-out: Antimicrobial activity (MIC)
Procedure: as §1, §2

[19] = system: S. aureus 209P JC-1; assay: MIC, agar plate dilution method; type: cell-based; details: Staphylococcus aureus; S. aureus 209P JC-1; 37° C., 20 hours; read-out: Antimicrobial activity (MIC)
Procedure: as §1, §2

[20] = system: S. epidermidis ATCC14990; assay: MIC, agar plate dilution method; type: cell-based; details: Staphylococcus epidermidis, 37° C., 20 hours, read-out: Antimicrobial activity (MIC)
Procedure: as §1, §2

[21] = system: S. aureus M133; assay: MIC, agar plate dilution method; type: cell-based; details: Staphylococcus aureus, 37° C., 20 hours, read-out: Antimicrobial activity (MIC)
Procedure: as §1, §2

[22] = system: M. pneumoniae FH; assay: MIC, agar plate dilution method; type: cell-based; details: Mycoplasmoides pneumoniae, 20 h, read-out: Antimicrobial activity (MIC)
Procedure: as §1, §2

[23] = system: B. catarrhalis W-0506; assay: MIC, agar plate dilution method; type: cell-based; details: Moraxella catarrhalis, W0506, 37° C., 20 hours, read-out: Antimicrobial activity (MIC)
Procedure: as §1, §2

[24] = system: H. influenzae 9334; assay: MIC, agar plate dilution method; type: cell-based; details: read-out: Antimicrobial activity (MIC)
Procedure: as §1, §2

[25] = system: M. luteus
Procedure: Each test compound and 50 μl of a methanol solution (10,000 γ) were added to 950 μl of thawed rat plasma and the resulting mixture was incubated at 37° C. for 24 hours. After completion of the incubation, a 20 μl portion of the mixture was added to 980 μl of 0.05M phosphate buffer (pH 7.6). A 20 μl portion of the sample solution was used to measure antimicrobial activity against M. luteus.

[26] = system: test strains; assay: antimicrobial activity in vitro, comparison in words; type: cell-based
Procedure: as §1, §2

[27] = system: Gram-positive bacteria; assay: antimicrobial activity in vitro (summary in words); type: cell-based; details: from Tables 2 and 3
Procedure: as §1, §2

[28] = system: H. influenzae Type b; assay: MIC, agar plate dilution method; type: cell-based; details: Haemophilus influenzae; H. influenzae Type b; 37° C., 20 hours; read-out: Antimicrobial activity (MIC)
Procedure: as §1, §2

| SMILES | MIC [3] [µg/mL] | MIC [6] [µg/mL] | MIC [7] [µg/mL] | MIC [8] [µg/mL] | MIC [9] [µg/mL] | MIC [12] [µg/mL] | MIC [13] [µg/mL] | MIC [14] [µg/mL] | MIC [15] [µg/mL] | MIC [16] [µg/mL] | MIC [19] [µg/mL] | MIC [20] [µg/mL] | MIC [21] [µg/mL] | MIC [23] [µg/mL] | also measured |
| --- | --- | --- | --- | --- | --- | --- | --- | --- | --- | --- | --- | --- | --- | --- | --- |
| CCCCO[C@H]1[C@H](C)O[C@@H](O[C@H]2[C@H](N(C)C)[C@@H](O)[C@H](O[C@H]3[C@@H](CC=O)C[C@@H](C)[C@@H](O)/C=C/C=C/C[C@@H](C)OC(=O)C[C@@H](OC(=O)CC)[C@@H]3OC)O[C@@H]2C)C[C@@]1(C)OC [(2)] | 0.2 (≈ 0.242 µM) | 1.56 (≈ 1.88 µM) | > 100 | 0.05 (≈ 0.0604 µM) | > 100 | 0.39 (≈ 0.471 µM) | > 100 | > 100 | 0.05 (≈ 0.0604 µM) | 0.78 (≈ 0.942 µM) | 0.39 (≈ 0.471 µM) | 1.56 (≈ 1.88 µM) | 0.78 (≈ 0.942 µM) | 1.56 (≈ 1.88 µM) | extent of metabolism [1]: hardly metabolized; antimicrobial activities compared with MDM [2]: comparable to, or even exceeding, that of MDM; antimicrobial activities on Gram-positive bacteria and Mycoplasma [2]: strong antimicrobial activities; MIC [4]: 0.1 µg/mL (≈ 0.121 µM); MIC ([5]; W73, 20 h): 3.13 µg/mL (≈ 3.78 µM); MIC ([10]; NIHJJC2, 20 h): > 100 µg/mL; MIC ([11]; 20 h): 0.2 µg/mL (≈ 0.242 µM); MIC [17]: 0.05 µg/mL (≈ 0.0604 µM); MIC [18]: 0.1 µg/mL (≈ 0.121 µM); MIC [22]: 1.56 µg/mL (≈ 1.88 µM); MIC ([24]; Haemophilus influenzae, 9334, 20 h): 6.25 µg/mL (≈ 7.55 µM); degree of loss of the antimicrobial activity in the plasma compared with MOM [25]: lower than that of MOM; duration of antimicrobial activity in rat plasma [25]: extremely long-acting in rat plasma |
| CCCCCO[C@H]1[C@H](C)O[C@@H](O[C@H]2[C@H](N(C)C)[C@@H](O)[C@H](O[C@H]3[C@@H](CC=O)C[C@@H](C)[C@@H](O)/C=C/C=C/C[C@@H](C)OC(=O)C[C@@H](O)[C@@H]3OC)O[C@@H]2C)C[C@@]1(C)OC [(11)] | 0.1 (≈ 0.127 µM) | 0.39 (≈ 0.496 µM) | > 100 | 0.05 (≈ 0.0636 µM) | > 100 | 0.39 (≈ 0.496 µM) | > 100 | > 100 | 0.05 (≈ 0.0636 µM) | 0.39 (≈ 0.496 µM) | 0.1 (≈ 0.127 µM) | 0.39 (≈ 0.496 µM) | 0.39 (≈ 0.496 µM) | 0.78 (≈ 0.992 µM) | antimicrobial activity in vitro compared with MOM ([26]; data are not shown): clearly much superior to MOM; antimicrobial activity compared with LM-A7 ([26]; except on Haemophilus influenzae, Tables 2 and 3): comparable or superior; antimicrobial activity on Gram-positive bacteria [27]: strong antimicrobial activity; MIC ([5]; W73, E. faecalis W-73, 37° C., 20 hours): 0.39 µg/mL (≈ 0.496 µM); MIC ([10]; NIHJJC2, E. coli NIHJ JC-2, 37° C., 20 hours): > 100 µg/mL; MIC ([11]; S. Pneumoniae Type 1, 37° C., 20 hours): 0.2 µg/mL (≈ 0.254 µM); MIC [28]: 12.5 µg/mL (≈ 15.9 µM); MIC ([24]; Haemophilus influenzae, H. influenzae 9334, 37° C., 20 hours): 3.13 µg/mL (≈ 3.98 µM) |
